Measured values reported in US12643859B2, “Pyridyl oxycarboxylic acid oxime derivative and preparation method therefor, weeding composition and application thereof” (Qingdao Kingagroot Chemical Compound Co., Ltd., priority 2018, dated 2026).

Tested on: Monocotyledonous and dicotyledonous weed seeds and main crop seeds
Assay: Post-emergence test experiment (Table 3, 1000 g a.i./ha)
Assay type: in vivo
Details: 3 weeks in greenhouse, fresh weight inhibition
Protocol: The above described growth inhibition rate is fresh weight inhibition rate.
Post-emergence test experiment: Monocotyledonous and dicotyledonous weed seeds and main crop seeds (i. e. wheat, corn, rice, soybean, cotton, oilseed, millet and sorghum.) were put into a plastic pot loaded with soil. Then covered with 0.5-2 cm soil, the seeds were allowed to grow in good greenhouse environment. The test plants were treated at 2-3 leaf stage 2 weeks after sowing. The test compounds of the invention were dissolved with acetone respectively, then added with tween-80, and using 1.5 liters per hectare of an emulsible concentrate of methyl oleate as a synergist, and diluted by certain amount of water to certain concentration. The solution was sprayed to the plants with a sprayer. Then the plants were cultured for 3 weeks in the greenhouse, and the experiment result of weed controlling effect was listed in tables 3-4.

COc1ccc(CNC(=O)C(C)=NOC(=O)C(C)Oc2nc(F)c(Cl)c(N)c2Cl)cc1 (stereo not shown) [Compound 103]
Activity level (growth inhibition rate) Digitaria sanguinalis: 5 (Level 5: the growth inhibition rate is greater than 85%)
Activity level (growth inhibition rate) Echinochloa crusgalli: 5 (Level 5: the growth inhibition rate is greater than 85%)
Activity level (growth inhibition rate) Galium spurium: 5 (Level 5: the growth inhibition rate is greater than 85%)
Activity level (growth inhibition rate) Leptochloa chinensis: 5 (Level 5: the growth inhibition rate is greater than 85%)
Activity level (growth inhibition rate) Monochoria Vaginalis: 5 (Level 5: the growth inhibition rate is greater than 85%)
Activity level (growth inhibition rate) Murdannia triquetra: 5 (Level 5: the growth inhibition rate is greater than 85%)
Activity level (growth inhibition rate) Setaria viridis: 5 (Level 5: the growth inhibition rate is greater than 85%)

CC(Oc1nc(F)c(Cl)c(N)c1Cl)C(=O)ON=C(C(=O)NCCc1ccccc1)c1ccccc1 (stereo not shown) [Compound 105]
Activity level (growth inhibition rate) Digitaria sanguinalis: 5 (Level 5: the growth inhibition rate is greater than 85%)
Activity level (growth inhibition rate) Echinochloa crusgalli: 5 (Level 5: the growth inhibition rate is greater than 85%)
Activity level (growth inhibition rate) Galium spurium: 5 (Level 5: the growth inhibition rate is greater than 85%)
Activity level (growth inhibition rate) Leptochloa chinensis: 5 (Level 5: the growth inhibition rate is greater than 85%)
Activity level (growth inhibition rate) Monochoria Vaginalis: 5 (Level 5: the growth inhibition rate is greater than 85%)
Activity level (growth inhibition rate) Murdannia triquetra: 5 (Level 5: the growth inhibition rate is greater than 85%)
Activity level (growth inhibition rate) Setaria viridis: 5 (Level 5: the growth inhibition rate is greater than 85%)

C=COC(=O)C(=NOC(=O)C(C)Oc1nc(F)c(Cl)c(N)c1Cl)C(=O)N(C)c1ccccc1 (stereo not shown) [Compound 106]
Activity level (growth inhibition rate) Digitaria sanguinalis: 5 (Level 5: the growth inhibition rate is greater than 85%)
Activity level (growth inhibition rate) Echinochloa crusgalli: 5 (Level 5: the growth inhibition rate is greater than 85%)
Activity level (growth inhibition rate) Galium spurium: 5 (Level 5: the growth inhibition rate is greater than 85%)
Activity level (growth inhibition rate) Leptochloa chinensis: 5 (Level 5: the growth inhibition rate is greater than 85%)
Activity level (growth inhibition rate) Monochoria Vaginalis: 5 (Level 5: the growth inhibition rate is greater than 85%)
Activity level (growth inhibition rate) Murdannia triquetra: 5 (Level 5: the growth inhibition rate is greater than 85%)
Activity level (growth inhibition rate) Setaria viridis: 5 (Level 5: the growth inhibition rate is greater than 85%)

CC(Oc1nc(F)c(Cl)c(N)c1Cl)C(=O)ON=C1CCCCC1 (stereo not shown) [Compound 116]
Activity level (growth inhibition rate) Digitaria sanguinalis: 5 (Level 5: the growth inhibition rate is greater than 85%)
Activity level (growth inhibition rate) Echinochloa crusgalli: 5 (Level 5: the growth inhibition rate is greater than 85%)
Activity level (growth inhibition rate) Galium spurium: 5 (Level 5: the growth inhibition rate is greater than 85%)
Activity level (growth inhibition rate) Leptochloa chinensis: 5 (Level 5: the growth inhibition rate is greater than 85%)
Activity level (growth inhibition rate) Monochoria Vaginalis: 5 (Level 5: the growth inhibition rate is greater than 85%)
Activity level (growth inhibition rate) Murdannia triquetra: 5 (Level 5: the growth inhibition rate is greater than 85%)
Activity level (growth inhibition rate) Setaria viridis: 5 (Level 5: the growth inhibition rate is greater than 85%)
